One block for each compound: values may come before it.
Columns and labels:
[1] = tested on: EGFR-over-expressing NE91 cells; experiment: Anchorage independent growth (soft agar colony formation) of NE91 cells; format: cell-based, mouse; details: 0.1 μM, colonies counted after 3 weeks, FIG. 4(D)
Experimental: To evaluate the inhibitory effect of C318 on cell proliferation in vitro, the compound was tested for inhibition of the anchorage independent growth of EGFR-over-expressing NE91 cells (FIG. 4). Anchorage independent growth was determined by assessing the colony-forming efficiency of cells suspended in soft agar. Cells (5×10^3) were suspended in a 1 ml top layer (0.375% agarose 10% FBS/DMEM) in 6-cm culture dishes containing a 3 ml cell-free feeder layer consisting of 0.5% agarose in DMEM supplemented with 10% FBS and 20 mM Hepes (pH 7.5). Culture dishes were fed by 0.7 ml 10% FBS/DMEM containing 0.1 uM of C318 or Tarceva® once every 5 days. Colonies were visualized and counted after 3 weeks after staining with p-iodonitrotetrazolium violet (1 mg/ml).

EGFR (L858R, T790M) = biological target: T1, EGFR (L858R, T790M) (Homo sapiens, UniProt P00533, L858R/T790M); experiment: Kinase assay with Tarceva-resistant EGFR mutant, HotSpot technology; format: biochemical
T1 construct: purchased Reaction Biology Corp. (Malvern, Pa.)
T1 sequence (P00533 25-1210 T790M/L858R): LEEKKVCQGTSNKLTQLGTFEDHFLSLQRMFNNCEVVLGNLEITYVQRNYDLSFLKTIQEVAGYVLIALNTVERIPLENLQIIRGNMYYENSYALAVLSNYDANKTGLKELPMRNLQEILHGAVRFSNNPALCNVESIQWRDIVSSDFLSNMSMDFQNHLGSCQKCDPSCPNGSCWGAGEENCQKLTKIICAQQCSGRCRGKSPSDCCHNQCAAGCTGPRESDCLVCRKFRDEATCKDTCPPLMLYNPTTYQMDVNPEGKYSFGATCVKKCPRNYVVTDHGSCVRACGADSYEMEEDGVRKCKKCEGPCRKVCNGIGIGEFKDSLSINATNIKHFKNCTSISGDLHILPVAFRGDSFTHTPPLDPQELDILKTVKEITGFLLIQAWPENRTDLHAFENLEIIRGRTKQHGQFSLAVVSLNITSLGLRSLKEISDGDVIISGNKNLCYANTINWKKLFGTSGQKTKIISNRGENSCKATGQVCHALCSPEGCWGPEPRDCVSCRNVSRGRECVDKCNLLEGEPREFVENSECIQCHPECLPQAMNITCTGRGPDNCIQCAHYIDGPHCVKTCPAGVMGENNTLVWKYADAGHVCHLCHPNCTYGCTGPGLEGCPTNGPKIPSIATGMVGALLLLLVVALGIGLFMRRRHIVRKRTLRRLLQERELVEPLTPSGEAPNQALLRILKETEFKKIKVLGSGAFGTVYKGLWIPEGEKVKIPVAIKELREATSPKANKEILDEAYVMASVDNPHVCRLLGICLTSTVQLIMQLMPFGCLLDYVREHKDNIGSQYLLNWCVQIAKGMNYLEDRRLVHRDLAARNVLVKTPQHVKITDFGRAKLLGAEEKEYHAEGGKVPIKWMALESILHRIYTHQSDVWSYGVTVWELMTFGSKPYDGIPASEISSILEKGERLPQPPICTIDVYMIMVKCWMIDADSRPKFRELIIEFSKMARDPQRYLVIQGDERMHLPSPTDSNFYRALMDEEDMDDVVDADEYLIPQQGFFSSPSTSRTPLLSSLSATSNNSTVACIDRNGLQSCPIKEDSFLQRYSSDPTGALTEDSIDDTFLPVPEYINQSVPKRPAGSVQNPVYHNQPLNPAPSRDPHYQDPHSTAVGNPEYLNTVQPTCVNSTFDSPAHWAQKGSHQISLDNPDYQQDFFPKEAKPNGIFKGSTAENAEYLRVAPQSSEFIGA
Experimental: (§1) In an additional set of tests, EGFR assays were done to determine IC50 values using HotSpot^SM technology with the peptide substrate poly[Glu:Tyr] (4:1, 0.2 mg/ml). These tests were conducted by Reaction Biology Corp. (Malvern, Pa.; http://www.reactionbiology.com). Kinase reactions were carried out in 20 mmol/L HEPES (pH 7.5), 10 mmol/L MgCl2, 1 mmol/L EGTA, 0.02% Brij 35, 0.02 mg/mL bovine serum albumin, 2 mmol/L DTT, and 1% DMSO. The final concentration of ATP was 10 μmol/L. Purified recombinant kinases were incubated with serial 3-fold dilutions of test compounds starting at a final concentration of 1 μmol/L. ATP concentration was 10 μmol/L. Dose response curves were fitted using Prism 5.0 from Graph-Pad Software.
All these inhibitors were also tested by the same kinase assay using the Tarceva®-resistant EGFR kinase mutant, EGFR (L858R, T790M).

EGFR [2] = biological target: T2, EGFR (Homo sapiens, UniProt P00533); experiment: EGFR kinase assay, HotSpot technology; format: biochemical; design: purchased Reaction Biology Corp. (Malvern, Pa.); details: ATP 10 μmol/L, substrate poly[Glu:Tyr]
T2 sequence (P00533 25-1210): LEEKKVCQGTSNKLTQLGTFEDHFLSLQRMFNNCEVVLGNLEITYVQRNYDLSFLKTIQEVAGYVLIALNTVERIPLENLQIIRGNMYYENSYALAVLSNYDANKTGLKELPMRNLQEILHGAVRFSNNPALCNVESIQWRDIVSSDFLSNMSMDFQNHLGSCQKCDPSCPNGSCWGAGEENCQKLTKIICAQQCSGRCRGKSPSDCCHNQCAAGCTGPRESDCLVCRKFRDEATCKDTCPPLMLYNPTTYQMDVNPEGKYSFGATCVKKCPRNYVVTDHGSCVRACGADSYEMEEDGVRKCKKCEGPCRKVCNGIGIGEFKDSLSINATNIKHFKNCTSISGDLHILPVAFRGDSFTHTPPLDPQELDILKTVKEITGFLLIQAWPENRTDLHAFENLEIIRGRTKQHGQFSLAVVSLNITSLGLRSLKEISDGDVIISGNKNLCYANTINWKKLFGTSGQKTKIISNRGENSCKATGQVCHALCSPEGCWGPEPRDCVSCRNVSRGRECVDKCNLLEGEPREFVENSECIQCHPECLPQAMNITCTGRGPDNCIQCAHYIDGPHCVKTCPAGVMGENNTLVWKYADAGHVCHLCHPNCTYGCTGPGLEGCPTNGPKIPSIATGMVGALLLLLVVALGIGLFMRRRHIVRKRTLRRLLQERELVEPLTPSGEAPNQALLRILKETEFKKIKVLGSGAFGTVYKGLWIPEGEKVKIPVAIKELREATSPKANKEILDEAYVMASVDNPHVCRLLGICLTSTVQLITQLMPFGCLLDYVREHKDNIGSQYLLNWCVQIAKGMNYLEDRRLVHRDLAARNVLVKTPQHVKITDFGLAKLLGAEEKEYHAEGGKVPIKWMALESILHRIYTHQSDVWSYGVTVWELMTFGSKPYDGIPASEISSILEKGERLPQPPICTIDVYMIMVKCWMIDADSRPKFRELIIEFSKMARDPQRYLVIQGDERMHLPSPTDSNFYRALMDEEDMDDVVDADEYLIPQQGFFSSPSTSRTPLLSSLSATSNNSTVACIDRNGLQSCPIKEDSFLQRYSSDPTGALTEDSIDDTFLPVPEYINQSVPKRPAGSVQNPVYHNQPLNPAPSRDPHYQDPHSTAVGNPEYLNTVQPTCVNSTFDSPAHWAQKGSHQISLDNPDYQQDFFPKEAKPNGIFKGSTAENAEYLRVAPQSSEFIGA
Experimental: as §1

EGFR [3] = biological target: T2, EGFR; experiment: Phosphorylation of EGFR Tyr residues in NE91 cells (Western blot); format: cell-based; design: expressed in transfected cells; host or cells: NE91 mouse fibroblasts; details: FIG. 3
Experimental: NE91 cells (mouse fibroblasts over-expressing wild type human type EGFR) were starved overnight, incubated with an exemplary mutation mimicking compound (designated EEO3, see below; 0.1 μM; lanes 2, 6 of FIG. 2), Tarceva® (0.1 μM; lanes 3, 7 of FIG. 2), or both (lanes 4, 8 of FIG. 2) for one hour, and harvested (lanes 1-4 of FIG. 2), or induced with EGF (50 ng/mL) for 15 minutes and harvested. Equal amounts of total protein were loaded on 10% SDS-PAGE gel, separated, transferred to a PVDF membrane, and probed with pY99, pERK antibodies (Santa Cruz Biotechnology), or antibodies against specific phosphotyrosines of EGFR (pY845, pY1068, pY992) or AKT phosphor-serine (473; Cell Signaling Technology). Total EGFR and γ-tubulin levels were determined as controls using the 1005 (Santa Cruz Biotechnology) and GTU88 (Sigma) Abs, respectively.
To estimate the inhibitory activity of Compound C318 on EGFR signaling, its effect on the phosphorylation of specific Tyr residues of EGFR kinase was tested (see FIG. 3). The methods used were the same as described in Example 3.

- inhibition of EGFR(L858R, T790M) (EGFR (L858R, T790M); at 100 nM, ATP 10 μmol/L): about the same inhibition as Tarceva®
- IC50 (EGFR [2]): 0.5 to 1 nM
- inhibition of phosphorylation of Tyr 992 of EGFR (EGFR [3]; compared with Tarceva): but not Tyr 992
- inhibition of phosphorylation of Tyr 1068 of EGFR (EGFR [3]; compared with Tarceva): stronger activity than Tarceva®
Structure (SMILES): O=C(O)CC(Sc1nnc(SCC(=O)Nc2ccc3ncnc(Nc4cc(Cl)c(Cl)cc4F)c3c2)s1)C(=O)O (stereo not shown) [Compound C318]
- inhibition of anchorage independent growth [1]: more active than Tarceva®

- inhibitory effects on EGFR Tyr phosphorylation relative to C-318 (EGFR [3]): not as strong as that of C-318
Structure (SMILES): O=C(CSc1nnc(SCC2CC2)s1)Nc1ccc2ncnc(Nc3cc(Cl)c(Cl)cc3F)c2c1 [Compound C318F]

- inhibitory effects on EGFR Tyr phosphorylation relative to C-318 (EGFR [3]): not as strong as that of C-318
Structure (SMILES): O=C(CSCCO)Nc1ccc2ncnc(Nc3cc(Cl)c(Cl)cc3F)c2c1 [Compound C300]

- activity to inhibit EGFR (L858R, T790M) kinase, comparison (EGFR (L858R, T790M); FIG. 7): better activity than C318
- inhibition at 0.1 µM (EGFR (L858R, T790M); at 100 nM, ATP 10 μmol/L): ~20%
- IC50 (EGFR [2]): 0.5 to 1 nM
Structure (SMILES): O=C(O)CC(Sc1nn(CC(=O)Nc2ccc3ncnc(Nc4cc(Cl)c(Cl)cc4F)c3c2)c(=S)s1)C(=O)O (stereo not shown) [Compound C318N, 2-([4-[([4-[(4,5-dichloro-2-fluorophenyl)amino]quinazolin-6-yl]carbamoyl)methyl]-5-sulfanylidene-4,5-dihydro-1,3,4-thiadiazol-2-yl]sulfanyl)butanedioic acid]

Reference: US9321759B2, “Methods and use of bifunctional enzyme-building clamp-shaped molecules” (The Trustees Of The University Of Pennsylvania, priority 2011, dated 2016)
